# According to ChEMBL document CHEMBL3885881, “DrugMatrix”:
# Species: Rattus norvegicus
# Experiment: DrugMatrix - Regimen: Daily Repeat
# Type: toxicity, organism-based, Sprague-Dawley
# Set-up: regimen Daily Repeat, gender Male, age 6-8 weeks
# Conditions: in vivo, po, route oral GAVAGE, […]; for ABSOLUTE BASOPHIL / ABSOLUTE EOSINOPHIL / ABSOLUTE LYMPHOCYTE / ABSOLUTE MONOCYTE / ABSOLUTE SEGMENTED NEUTROPHIL / BASOPHIL / EOSINOPHIL / ERYTHROCYTE COUNT / HEMATOCRIT / HEMOGLOBIN / LEUKOCYTE COUNT / LYMPHOCYTE / MEAN CORPUSCULAR HEMOGLOBIN / MEAN CORPUSCULAR HEMOGLOBIN CONCENTRATION / MEAN CORPUSCULAR VOLUME / MONOCYTE / NEUTROPHIL / NUCLEATED RED BLOOD CELLS / PLATELET COUNT: tissue Blood; for ALANINE AMINOTRANSFERASE / ALBUMIN / ALKALINE PHOSPHATASE / ASPARTATE AMINOTRANSFERASE / BLOOD UREA NITROGEN / CARBON DIOXIDE / CHLORIDE / CHOLESTEROL / CREATINE PHOSPHOKINASE / CREATININE / GLUCOSE / LACTATE DEHYDROGENASE / LIPASE / PHOSPHORUS / POTASSIUM / SODIUM / TOTAL BILIRUBIN / TOTAL PROTEIN / URIC ACID: tissue Plasma
# [1] = 79 mg/kg, 72 h, dose level Low, time 3 day
# [2] = 79 mg/kg, 120 h, dose level Low, time 5 day
# [3] = 2500 mg/kg, 72 h, dose level High, time 3 day
# [4] = 2500 mg/kg, 120 h, dose level High, time 5 day
compound,measurement,setting,value
COc1ccc2cc(CCC(C)=O)ccc2c1 [NABUMETONE],ABSOLUTE BASOPHIL,[1],0 CELLS/uL
same,ABSOLUTE EOSINOPHIL,[1],0 CELLS/uL
same,ABSOLUTE LYMPHOCYTE,[1],14572 CELLS/uL
same,ABSOLUTE MONOCYTE,[1],0 CELLS/uL
same,ABSOLUTE SEGMENTED NEUTROPHIL,[1],1228 CELLS/uL
same,BASOPHIL,[1],0%
same,EOSINOPHIL,[1],0%
same,ERYTHROCYTE COUNT,[1],5.17 x10E6/uL
same,HEMATOCRIT,[1],32.13%
same,HEMOGLOBIN,[1],12.87 G/DL
same,LEUKOCYTE COUNT,[1],15.8 x10E3/uL
same,LYMPHOCYTE,[1],92.33%
same,MEAN CORPUSCULAR HEMOGLOBIN,[1],24.87 pg
same,MEAN CORPUSCULAR HEMOGLOBIN CONCENTRATION,[1],40.07 G/DL
same,MEAN CORPUSCULAR VOLUME,[1],62.1 fL
same,MONOCYTE,[1],0%
same,NEUTROPHIL,[1],7.67%
same,NUCLEATED RED BLOOD CELLS,[1],0 /100WBC
same,PLATELET COUNT,[1],1308.67 x10E3/uL
same,ALANINE AMINOTRANSFERASE,[1],72.33 u/L
same,ALBUMIN,[1],4 G/DL
same,ALKALINE PHOSPHATASE,[1],371 u/L
same,ASPARTATE AMINOTRANSFERASE,[1],79.33 u/L
same,BLOOD UREA NITROGEN,[1],15.67 mg/dL
same,CARBON DIOXIDE,[1],31 mmol/L
same,CHLORIDE,[1],103 MEQ/L
same,CHOLESTEROL,[1],83.67 mg/dL
same,CREATINE PHOSPHOKINASE,[1],226.33 u/L
same,CREATININE,[1],0.12 mg/dL
same,GLUCOSE,[1],150.67 mg/dL
same,LACTATE DEHYDROGENASE,[1],93.33 u/L
same,LIPASE,[1],10 u/L
same,PHOSPHORUS,[1],12.3 mg/dL
same,POTASSIUM,[1],6.52 MEQ/L
same,SODIUM,[1],144.77 MEQ/L
same,TOTAL BILIRUBIN,[1],0.13 mg/dL
same,TOTAL PROTEIN,[1],5.33 G/DL
same,URIC ACID,[1],1.73 mg/dL
same,ABSOLUTE BASOPHIL,[2],0 CELLS/uL
same,ABSOLUTE EOSINOPHIL,[2],33.67 CELLS/uL
same,ABSOLUTE LYMPHOCYTE,[2],9495 CELLS/uL
same,ABSOLUTE MONOCYTE,[2],148 CELLS/uL
same,ABSOLUTE SEGMENTED NEUTROPHIL,[2],1090 CELLS/uL
same,BASOPHIL,[2],0%
same,EOSINOPHIL,[2],0.33%
same,ERYTHROCYTE COUNT,[2],5.45 x10E6/uL
same,HEMATOCRIT,[2],33.1%
same,HEMOGLOBIN,[2],13.23 G/DL
same,LEUKOCYTE COUNT,[2],10.77 x10E3/uL
same,LYMPHOCYTE,[2],88.33%
same,MEAN CORPUSCULAR HEMOGLOBIN,[2],24.3 pg
same,MEAN CORPUSCULAR HEMOGLOBIN CONCENTRATION,[2],39.97 G/DL
same,MEAN CORPUSCULAR VOLUME,[2],60.83 fL
same,MONOCYTE,[2],1.33%
same,NEUTROPHIL,[2],10%
same,NUCLEATED RED BLOOD CELLS,[2],0 /100WBC
same,PLATELET COUNT,[2],1115 x10E3/uL
same,ALANINE AMINOTRANSFERASE,[2],69.33 u/L
same,ALBUMIN,[2],4.1 G/DL
same,ALKALINE PHOSPHATASE,[2],332 u/L
same,ASPARTATE AMINOTRANSFERASE,[2],95.67 u/L
same,BLOOD UREA NITROGEN,[2],12.33 mg/dL
same,CARBON DIOXIDE,[2],33 mmol/L
same,CHLORIDE,[2],103 MEQ/L
same,CHOLESTEROL,[2],61.33 mg/dL
same,CREATINE PHOSPHOKINASE,[2],321 u/L
same,CREATININE,[2],0.15 mg/dL
same,GLUCOSE,[2],173.33 mg/dL
same,LACTATE DEHYDROGENASE,[2],214.67 u/L
same,LIPASE,[2],9.67 u/L
same,PHOSPHORUS,[2],11.03 mg/dL
same,POTASSIUM,[2],5.83 MEQ/L
same,SODIUM,[2],145.17 MEQ/L
same,TOTAL BILIRUBIN,[2],0.13 mg/dL
same,TOTAL PROTEIN,[2],5.53 G/DL
same,URIC ACID,[2],1.13 mg/dL
same,ABSOLUTE BASOPHIL,[3],0 CELLS/uL
same,ABSOLUTE EOSINOPHIL,[3],0 CELLS/uL
same,ABSOLUTE LYMPHOCYTE,[3],9646 CELLS/uL
same,ABSOLUTE MONOCYTE,[3],275 CELLS/uL
same,ABSOLUTE SEGMENTED NEUTROPHIL,[3],3829 CELLS/uL
same,BASOPHIL,[3],0%
same,EOSINOPHIL,[3],0%
same,ERYTHROCYTE COUNT,[3],4.08 x10E6/uL
same,HEMATOCRIT,[3],26.8%
same,HEMOGLOBIN,[3],10.45 G/DL
same,LEUKOCYTE COUNT,[3],13.75 x10E3/uL
same,LYMPHOCYTE,[3],70%
same,MEAN CORPUSCULAR HEMOGLOBIN,[3],25.55 pg
same,MEAN CORPUSCULAR HEMOGLOBIN CONCENTRATION,[3],38.9 G/DL
same,MEAN CORPUSCULAR VOLUME,[3],65.7 fL
same,MONOCYTE,[3],2%
same,NEUTROPHIL,[3],28%
same,NUCLEATED RED BLOOD CELLS,[3],0 /100WBC
same,PLATELET COUNT,[3],873.5 x10E3/uL
same,ALANINE AMINOTRANSFERASE,[3],41 u/L
same,ALBUMIN,[3],2.7 G/DL
same,ALKALINE PHOSPHATASE,[3],286.5 u/L
same,ASPARTATE AMINOTRANSFERASE,[3],125 u/L
same,BLOOD UREA NITROGEN,[3],15.5 mg/dL
same,CARBON DIOXIDE,[3],28.5 mmol/L
same,CHLORIDE,[3],94 MEQ/L
same,CHOLESTEROL,[3],75 mg/dL
same,CREATINE PHOSPHOKINASE,[3],410 u/L
same,CREATININE,[3],0.17 mg/dL
same,GLUCOSE,[3],134 mg/dL
same,LACTATE DEHYDROGENASE,[3],144 u/L
same,LIPASE,[3],9 u/L
same,PHOSPHORUS,[3],12 mg/dL
same,POTASSIUM,[3],6.89 MEQ/L
same,SODIUM,[3],136.5 MEQ/L
same,TOTAL BILIRUBIN,[3],0.1 mg/dL
same,TOTAL PROTEIN,[3],4.95 G/DL
same,URIC ACID,[3],1.35 mg/dL
same,ABSOLUTE BASOPHIL,[4],0 CELLS/uL
same,ABSOLUTE EOSINOPHIL,[4],0 CELLS/uL
same,ABSOLUTE LYMPHOCYTE,[4],3068 CELLS/uL
same,ABSOLUTE MONOCYTE,[4],0 CELLS/uL
same,ABSOLUTE SEGMENTED NEUTROPHIL,[4],8732 CELLS/uL
same,BASOPHIL,[4],0%
same,EOSINOPHIL,[4],0%
same,ERYTHROCYTE COUNT,[4],2.58 x10E6/uL
same,HEMATOCRIT,[4],15.9%
same,HEMOGLOBIN,[4],6.6 G/DL
same,LEUKOCYTE COUNT,[4],11.8 x10E3/uL
same,LYMPHOCYTE,[4],26%
same,MEAN CORPUSCULAR HEMOGLOBIN,[4],25.6 pg
same,MEAN CORPUSCULAR HEMOGLOBIN CONCENTRATION,[4],41.5 G/DL
same,MEAN CORPUSCULAR VOLUME,[4],61.8 fL
same,MONOCYTE,[4],0%
same,NEUTROPHIL,[4],74%
same,NUCLEATED RED BLOOD CELLS,[4],0 /100WBC
same,PLATELET COUNT,[4],1731 x10E3/uL
same,ALANINE AMINOTRANSFERASE,[4],34 u/L
same,ALBUMIN,[4],2.4 G/DL
same,ALKALINE PHOSPHATASE,[4],326 u/L
same,ASPARTATE AMINOTRANSFERASE,[4],66 u/L
same,BLOOD UREA NITROGEN,[4],17 mg/dL
same,CARBON DIOXIDE,[4],28 mmol/L
same,CHLORIDE,[4],97 MEQ/L
same,CHOLESTEROL,[4],55 mg/dL
same,CREATINE PHOSPHOKINASE,[4],158 u/L
same,CREATININE,[4],0.13 mg/dL
same,GLUCOSE,[4],102 mg/dL
same,LACTATE DEHYDROGENASE,[4],80 u/L
same,LIPASE,[4],9 u/L
same,PHOSPHORUS,[4],7.6 mg/dL
same,POTASSIUM,[4],6.79 MEQ/L
same,SODIUM,[4],138 MEQ/L
same,TOTAL BILIRUBIN,[4],0.2 mg/dL
same,TOTAL PROTEIN,[4],4.7 G/DL
same,URIC ACID,[4],0.9 mg/dL
